Data reported in patent US20180028424A1, “COMPOSITIONS FOR IMPROVING THE HEALTH OF HAIR, SKIN, AND NAILS” (FYBRANDS CORP., priority 2015, published 2018).

Assays:
[1] = solubility of silibinin in acetone; assay type: physicochemical; details: dissolved at 40-50° C. in Example 1
Protocol: Silibinin is soluble in acetone. We evaluated the possibility that silibinin could be first dissolved in acetone and then put into solution with an oil carrier. Since acetone evaporates to completion out of any open system, it could be removed leaving the silibinin in solution. One should keep in mind that acetone is incredibly flammable, and methods for removing acetone should be chosen carefully.
Briefly, a total desired amount of silibinin was dissolved into acetone at moderate temperature (40-50° C.). Capric/capryllic triglyceride was then added with mixing until completely mixed. […] The solution was cooled with stirring. Rosemary EO 1 was added once the temperature was below 50° C., and the product was poured into dispensing containers for use by test subjects.

[2] = solubility of silibinin in water; assay type: physicochemical
From the text: In certain embodiments, the disclosure provides compositions to deliver the active ingredient to the root bulb of the hair follicle. Silibinin is not soluble in water. Creating a cream formulation could possibly lead to clogging of pores at the site of the hair follicle, which could negatively affect restoration of the follicle. In certain aspects, the present disclosure relates to delivery of silibinin using oil-based formulations. Oil is absorbed into the stratum corneum and deeper layers of the skin where the root bulb cells are located.

- solubility in acetone [1]: soluble
- solubility in water [2]: not soluble
Structure (SMILES): COc1cc(C2Oc3cc([C@H]4Oc5cc(O)cc(O)c5C(=O)[C@@H]4O)ccc3OC2CO)ccc1O (some centres unmarked) [Silibinin]
